Measurements reported in patent US20250100996A1, “HETEROCYCLOALKYL AND HETEROARYL COMPOUNDS AND PHARMACEUTICAL COMPOSITIONS THAT MODULATE IKZF2” (Plexium, Inc., priority 2021, published 2025).

Assays:
[1] = target: T1, human E3 ligase component cereblon (CRBN) (Homo sapiens, UniProt Q96SW2); assay: Cereblon (CRBN) target engagement, NanoBRET TE Intracellular E3 Ligase Assay in transfected HEK-293T cells; settings: read-out: CRBN Binding EC50
T1 construct: host or cells: HEK293T
Protocol: HEK293T cells were harvested ca. 75% confluent with trypsin and plated (500,000 cells/well) in a 6-well tissue culture plate in 2 mL of Dulbecco's Modified Eagle Medium (DMEM)^+10% Fetal Bovine Serum (FBS) and incubated overnight at 37° C.
The NanoLuc-CRBN fusion vector (Nluc-CRBN; Promega) contains the coding region of human E3 ligase component cereblon (CRBN) fused to the C-terminus of the NanoLuc luciferase coding region. A mixture of 10 ng Nluc-CRBN and 990 ng DDB1 Expression Vector (Promega) was added to 125 μL Opti-Minimum Essential Medium (Opti-MEM™; Thermo Fisher) along with […] P3000 reagent (Thermo Fisher) in a 1.5 mL epppendorf tube. This solution was added to Lipofectamine 3000 transfection reagent (5 μL; Thermo Fisher) in Opti-MEM (125 μL), mixed well, and incubated for 15 minutes at room temperature. The transfection mixture was added dropwise to cells and incubated overnight at 37° C., 5% CO2. Following transfection, cells were washed once with PBS, and trypsin (250 μL) was added and incubated 30-45 see to dislodge cells. Complete media (2 mL) was added to resuspend cells to form a single cell suspension. Cells were centrifuged at 320×g for 5 min at room temperature, the supernatant was removed, and the cell pellet resuspended in Opti-MEM (3 mL; wash step repeated ×2). After final resuspension in 5 mL Opti-MEM, cells were counted and resuspended at 200,000 cells/mL in Opti-MEM.
Cereblon target engagement was monitored by Bioluminescence Resonance Energy Transfer (BRET) in transfected HEK-293T cells using the NanoBRET TE Intracellular E3 Ligase Assay (Promega). Briefly, 384-well plates (white opaque plates, Corning 3574, low binding surface) were seeded with transfected HEK-293T cells (38 μL/well). 2 μL of 10 μM CRBN tracer (diluted 1:5 in Tracer Dilution Buffer) was added to each well. Plates were centrifuged at 320×g for 1 min at room temperature. Test compounds were added in a 11-point dilution series (typically 10 μM to 100 pM) using a TECAN D300e Digital Dispenser. Plates were shaken for 2 minutes on a microplate shaker to mix compounds. Plates were centrifuged at 320×g for 1 min at room temperature, and subsequently incubated for 2 hours at 37° C.
After incubation, plates were allowed to cool to room temperature for 15 minutes. 20 μL of 3× Complete NanoBRET™ Nano-Glo® Substrate plus Inhibitor Solution (Promega, 1:166 Substrate and 1:500 dilution of Extracellular NanoLuc® Inhibitor diluted in Opti-MEM) were added to each well. Plates were incubated with shaking at room temperature for 3 minutes covered with foil. Plates were read on a CLARIOstar microplate reader (BMG LabTech), measuring at 450 nm (donor emission) and 610 nm (acceptor emission). The IC50 values were determined by regression to best fit four-parameter logistic curves using GraphPad Prism.

[2] = target: T2, IKZF2 (Helios) (Homo sapiens, UniProt Q9UKS7); assay: IKZF2 reporter degradation assay (HEK 293T IKZF2-mNeonGreen reporter cell line); type: cell-based; settings: HEK 293T IKZF2-mNeonGreen reporter, 24 hours incubation
T2 construct: Leu-Asp junction (codons ctcgac before the linker); mScarlet (behind P2A) (C, cleaved yes); expressed in transfected cells
T2 sequence (Q9UKS7 whole entry): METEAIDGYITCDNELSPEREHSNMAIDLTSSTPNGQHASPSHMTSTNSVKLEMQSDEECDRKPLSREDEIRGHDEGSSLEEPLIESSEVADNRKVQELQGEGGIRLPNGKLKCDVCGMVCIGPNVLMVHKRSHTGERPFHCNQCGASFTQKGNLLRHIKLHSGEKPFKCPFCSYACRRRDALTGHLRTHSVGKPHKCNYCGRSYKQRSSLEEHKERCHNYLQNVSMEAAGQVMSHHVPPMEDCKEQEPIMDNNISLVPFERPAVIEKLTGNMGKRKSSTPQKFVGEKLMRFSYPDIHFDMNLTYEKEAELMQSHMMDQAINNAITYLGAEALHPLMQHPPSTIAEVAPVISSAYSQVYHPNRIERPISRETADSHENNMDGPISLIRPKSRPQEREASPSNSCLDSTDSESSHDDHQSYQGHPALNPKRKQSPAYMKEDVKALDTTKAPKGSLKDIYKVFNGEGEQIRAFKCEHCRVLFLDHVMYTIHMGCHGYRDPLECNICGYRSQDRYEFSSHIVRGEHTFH
T2 sequence (Q96SW2 whole entry, further chain): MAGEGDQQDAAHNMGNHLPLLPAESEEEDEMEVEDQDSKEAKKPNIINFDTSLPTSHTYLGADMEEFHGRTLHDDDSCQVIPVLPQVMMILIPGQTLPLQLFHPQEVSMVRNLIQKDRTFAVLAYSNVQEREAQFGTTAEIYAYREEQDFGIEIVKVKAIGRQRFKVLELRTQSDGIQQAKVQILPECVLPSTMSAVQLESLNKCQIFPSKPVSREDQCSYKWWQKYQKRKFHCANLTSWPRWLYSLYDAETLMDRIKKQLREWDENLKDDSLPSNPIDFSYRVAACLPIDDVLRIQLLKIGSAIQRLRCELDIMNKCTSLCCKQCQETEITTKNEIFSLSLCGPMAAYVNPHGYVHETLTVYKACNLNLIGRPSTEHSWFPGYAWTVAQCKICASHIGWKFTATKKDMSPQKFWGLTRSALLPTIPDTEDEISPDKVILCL
T2 sequence (Q16531 whole entry partner): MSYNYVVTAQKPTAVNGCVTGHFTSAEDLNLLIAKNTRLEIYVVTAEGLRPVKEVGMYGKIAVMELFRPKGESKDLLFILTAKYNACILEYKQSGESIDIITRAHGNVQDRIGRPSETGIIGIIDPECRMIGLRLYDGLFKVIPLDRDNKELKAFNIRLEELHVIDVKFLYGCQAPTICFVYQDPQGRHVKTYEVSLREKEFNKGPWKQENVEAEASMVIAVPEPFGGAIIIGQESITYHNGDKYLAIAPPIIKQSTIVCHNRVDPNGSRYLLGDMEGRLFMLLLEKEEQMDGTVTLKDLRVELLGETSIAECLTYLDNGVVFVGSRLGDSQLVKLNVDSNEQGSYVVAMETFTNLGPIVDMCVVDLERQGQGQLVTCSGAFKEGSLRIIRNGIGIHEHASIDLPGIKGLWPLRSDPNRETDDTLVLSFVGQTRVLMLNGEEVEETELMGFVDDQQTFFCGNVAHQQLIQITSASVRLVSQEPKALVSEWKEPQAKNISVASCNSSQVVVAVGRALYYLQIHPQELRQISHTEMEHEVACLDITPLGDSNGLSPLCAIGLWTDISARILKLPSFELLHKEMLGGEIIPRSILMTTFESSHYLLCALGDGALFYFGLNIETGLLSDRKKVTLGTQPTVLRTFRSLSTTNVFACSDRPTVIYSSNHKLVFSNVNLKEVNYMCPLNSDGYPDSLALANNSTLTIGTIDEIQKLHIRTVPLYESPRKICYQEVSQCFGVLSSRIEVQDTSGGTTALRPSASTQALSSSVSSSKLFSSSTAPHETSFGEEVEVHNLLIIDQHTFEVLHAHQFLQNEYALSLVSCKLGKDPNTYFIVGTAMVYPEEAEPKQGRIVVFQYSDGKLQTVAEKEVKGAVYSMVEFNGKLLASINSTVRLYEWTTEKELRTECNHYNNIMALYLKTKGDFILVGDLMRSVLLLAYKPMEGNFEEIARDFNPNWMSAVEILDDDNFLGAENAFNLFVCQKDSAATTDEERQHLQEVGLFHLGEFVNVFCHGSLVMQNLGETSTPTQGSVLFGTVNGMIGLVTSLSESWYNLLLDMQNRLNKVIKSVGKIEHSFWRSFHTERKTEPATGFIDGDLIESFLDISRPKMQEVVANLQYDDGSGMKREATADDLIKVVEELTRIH
Source text: Polycistronic plasmids were constructed for the mammalian expression of fluorescent reporter fusions of human transcription factors IKZF1 (Ikaros), IKZF2 (Helios), and IKZF3 (Aiolos). The respective protein sequences had their C-terminal end joined to a GGGGS linker repeated three times followed by mNeonGreen, P2A sequence, and mScarlet. The DNA sequences of the open reading frames are as follows:
IKZF1, IKZF2, and IKZF3 constructs were cloned into the UCOE Hygromycin expression vectors (Millipore Sigma). Reporter constructs were transfected using cationic lipid reagents into adherent HEK 293T cells and stable integrants were selected by treatment with 200 μg/mL hygromycin B. Clonal populations were obtained from the population of stable integrants either by limiting dilution or fluorescence activated cell sorting.
The clonal stable cell lines were maintained under constant 200 μg/mL hygromycin B selection while being passaged for use in the degradation assays. […] The fluorescence intensity of the IKZF1/2/3-mNeonGreen (FITC channel) and mScarlet (PE channel) reporters were routinely analyzed by flow cytometry to confirm consistent expression levels between experiments.
The IKZF1/IKZF2/IKZF3 degradation assays were carried out by harvesting the HEK 293T reporter cell lines and resuspending the cells in media formulated for reduced background fluorescence (FluoroBrite; Thermo Fisher). The respective cell lines were seeded at a density of 4000 cells/well into black-walled 384-well optical grade assay tissue culture plates. The cells were incubated overnight at 37° C. to allow for attachment to the assay plate. Dilutions of the compounds were prepared in DMSO from 10 mM compound stocks. The assay plates were treated with appropriate concentrations of the compounds by dispensing the DMSO dilutions in quadruplicate wells with an upper limit of 0.5% final DMSO.
After 24 hours incubation with the compounds, the assay plates were imaged on an ImageXpress Pico microscopy system (cells maintained at 37° C. during imaging) to obtain the fluorescent readouts. The assay plates were imaged in the FITC and Tetramethylrhodamine (TRITC) channels to obtain the mNeonGreen fluorescence intensity (reporter degradation data) and mScarlet fluorescence intensity (for cell segmentation). 293T-IKZF1 and 293T-IKZF3 reporter cell lines were imaged with exposures of 500 milliseconds (ms) for both FITC and TRITC channels, while the 293T-IKZF2 reporter cell line was imaged with exposures of 1000 ms for FITC and 1250 ms for TRITC. The resulting data was analyzed with Cell Reporter Xpress software using the 2-channel cell scoring analysis with a “percent positive” readout. The TRITC channel was selected for the “nuclei” segmentation with a threshold of 20 while the FITC channel was selected for the “Marker 1” segmentation and a threshold of 100 for the IKZF1 and IKZF3 reporter lines. […] The minimum segmentation width was set to 6 micrometers and the maximum segmentation width was set to 15 micrometers for all cell lines. The DC50 calculations were determined by regression to best fit four-parameter logistic curves using GraphPad Prism.

T1 sequence (Q96SW2 whole entry): as the sequence (Q96SW2 whole entry, further chain) above
T1 sequence (Q16531 whole entry partner): as the sequence (Q16531 whole entry partner) above

EC50 [1] [nM]	DC50 [2] [nM]	Structure (SMILES)
> 10000		O=C1NC(=O)C2(N3Cc4cc(OC5CCC[C@@H]5N5CC(c6ncc(Cl)cn6)C5)ccc4C3=O)CC1C2 (mixture of isomers) [Compound 157-B, Rac-1-(5-(((trans)-2-(3-(5-chloropyrimidin-2-yl)azetidin-1-yl)cyclopentyl)oxy)-1-oxoisoindolin-2-yl)-3-azabicyclo[3.1.1]heptane-2,4-dione]
9	> 30000	O=C1CCC(N2Cc3cc(O[C@@H]4CCCC[C@H]4N4CC(c5ncc(Cl)cn5)C4)ccc3C2=O)C(=O)N1 (single isomer, unassigned) [Compound 109-B]
3	> 30000	O=C1CCC(N2Cc3cc(O[C@@H]4CCCC[C@H]4N4CC(c5ncc(C6CC6)cn5)C4)ccc3C2=O)C(=O)N1 (single isomer, unassigned) [Compound 132-B]
29	> 30000	O=C1CCC(N2Cc3cc(O[C@@H]4CCCC[C@@H]4N4CC(c5ncncc5Cl)C4)ccc3C2=O)C(=O)N1 (single isomer, unassigned) [Compound 94-B]
> 10000		O=C1NC(=O)C2(N3Cc4cc(O[C@@H]5CCCC[C@@H]5N5CC(c6ccncc6)C5)ccc4C3=O)CC1C2 (racemic) [Compound 159-B, Rac-1-(1-oxo-5-(((cis)-2-(3-(pyridin-4-yl)azetidin-1-yl)cyclohexyl)oxy)isoindolin-2-yl)-3-azabicyclo[3.1.1]heptane-2,4-dione]
30	> 30000	O=C1CCC(N2Cc3cc(O[C@@H]4CCCC[C@@H]4N4CC(c5ccncc5Cl)C4)ccc3C2=O)C(=O)N1 (single isomer, unassigned) [Compound 96-B]
24	> 30000	O=C1CCC(N2Cc3cc(O[C@@H]4CCCC[C@@H]4N4CC(c5ncc(C(F)(F)F)cn5)C4)ccc3C2=O)C(=O)N1 (single isomer, unassigned) [Compound 119-B]
6	> 30000	O=C1CCC(N2Cc3cc(O[C@@H]4CCCC[C@H]4N4CC(c5ncc(Br)cn5)C4)ccc3C2=O)C(=O)N1 (single isomer, unassigned) [Compound 106-B]
4	> 30000	O=C1CCC(N2Cc3cc(O[C@@H]4CCCC[C@@H]4N4CC(c5ncc(C(F)(F)F)cn5)C4)ccc3C2=O)C(=O)N1 (single isomer, unassigned) [Compound 118-B]
> 10000		Cc1cnc(C2CN([C@H]3CCCC3Oc3ccc4c(c3)CN(C35CC(C3)C(=O)NC5=O)C4=O)C2)o1 (mixture of isomers) [Compound 144-B, Rac-1-(5-(((cis)-2-(3-(5-methyloxazol-2-yl)azetidin-1-yl)cyclopentyl)oxy)-1-oxoisoindolin-2-yl)-3-azabicyclo[3.1.1]heptane-2,4-dione]
88		O=C1CCC(N2Cc3cc(OC4CCCC4N4CC(c5ncc(F)cn5)C4)ccc3C2=O)C(=O)N1 (stereo not drawn) [Compound 158-B, 3-(5-((2-(3-(5-fluoropyrimidin-2-yl)azetidin-1-yl)cyclopentyl)oxy)-1-oxoisoindolin-2-yl)piperidine-2,6-dione]
> 10000		Cc1cnc(C2CN([C@H]3CCCC[C@@H]3Oc3ccc4c(c3)CN(C35CC(C3)C(=O)NC5=O)C4=O)C2)o1 (racemic) [Compound 150-B, Rac-1-(5-(((trans)-2-(3-(5-methyloxazol-2-yl)azetidin-1-yl)cyclohexyl)oxy)-1-oxoisoindolin-2-yl)-3-azabicyclo[3.1.1]heptane-2,4-dione]
10	> 30000	O=C1CCC(N2Cc3cc(O[C@@H]4CCCC[C@H]4N4CC(c5ncc(C6CC6)cn5)C4)ccc3C2=O)C(=O)N1 (single isomer, unassigned) [Compound 133-B]
29	> 30000	O=C1CCC(N2Cc3cc(O[C@@H]4CCCC[C@@H]4N4CC(c5cncc(Cl)c5)C4)ccc3C2=O)C(=O)N1 (stereo partly drawn) [Compound 105-B, 3-(5-(((1R,2S)-2-(3-(5-chloropyridin-3-yl)azetidin-1-yl)cyclohexyl)oxy)-1-oxoisoindolin-2-yl)piperidine-2,6-dione]
11	> 30000	O=C1CCC(N2Cc3cc(O[C@H]4CCCC[C@H]4N4CC(c5ccc(Cl)cn5)C4)ccc3C2=O)C(=O)N1 (single isomer, unassigned) [Compound 97-B]
22	> 30000	O=C1CCC(N2Cc3cc(O[C@H]4CCCC[C@@H]4N4CC(c5ncc(Br)cn5)C4)ccc3C2=O)C(=O)N1 (single isomer, unassigned) [Compound 107-B]
> 10000		O=C1NC(=O)C2(N3Cc4cc(O[C@H]5CCCC[C@@H]5N5CC(c6ccncc6)C5)ccc4C3=O)CC1C2 (racemic) [Compound 160-B, Rac-1-(1-oxo-5-(((trans)-2-(3-(pyridin-4-yl)azetidin-1-yl)cyclohexyl)oxy)isoindolin-2-yl)-3-azabicyclo[3.1.1]heptane-2,4-dione]
38	> 30000	O=C1CCC(N2Cc3cc(O[C@@H]4CCCC[C@@H]4N4CC(c5ccncc5F)C4)ccc3C2=O)C(=O)N1 (single isomer, unassigned) [Compound 104-B]
> 10000		O=C1NC(=O)C2(N3Cc4cc(OC5CCC[C@@H]5N5CC(c6ncc(Cl)cn6)C5)ccc4C3=O)CC1C2 (mixture of isomers) [Compound 156-B, Rac-1-(5-(((cis)-2-(3-(5-chloropyrimidin-2-yl)azetidin-1-yl)cyclopentyl)oxy)-1-oxoisoindolin-2-yl)-3-azabicyclo[3.1.1]heptane-2,4-dione]
> 10000		Cc1cnc(C2CN([C@H]3CCCC3Oc3ccc4c(c3)CN(C35CC(C3)C(=O)NC5=O)C4=O)C2)o1 (mixture of isomers) [Compound 145-B, Rac-1-(5-(((trans)-2-(3-(5-methyloxazol-2-yl)azetidin-1-yl)cyclopentyl)oxy)-1-oxoisoindolin-2-y1)-3-azabicyclo[3.1.1]heptane-2,4-dione]
> 10000		Cc1cnc(C2CN([C@H]3CCCC[C@H]3Oc3ccc4c(c3)CN(C35CC(C3)C(=O)NC5=O)C4=O)C2)o1 (racemic) [Compound 149-B, Rac-1-(5-(((cis)-2-(3-(5-methyloxazol-2-yl)azetidin-1-yl)cyclohexyl)oxy)-1-oxoisoindolin-2-yl)-3-azabicyclo[3.1.1]heptane-2,4-dione]
